The kinase profiling compilation of Christmann-Franck et al. (2016)

Assays:
Experiment in all cases: KINOMEscan competition binding
Settings in all cases: compound 1.0 µM
[1] = target: ALK (human) (UniProt Q9UM73)
[2] = target: AURKC (human) (UniProt Q9UQB9)
[3] = target: BLK (human) (UniProt P51451)
[4] = target: CAMKK2 (human) (UniProt Q96RR4)
[5] = target: CDK19 (human) (UniProt Q9BWU1)
[6] = target: CDKL5 (human) (UniProt O76039)
[7] = target: CHUK (human) (UniProt O15111)
[8] = target: CSK (human) (UniProt P41240)
[9] = target: CSNK2A2 (human) (UniProt P19784)
[10] = target: DDR2 (human) (UniProt Q16832)
[11] = target: DSTYK (human) (UniProt Q6XUX3)
[12] = target: DYRK1A (human) (UniProt Q13627)
[13] = system: EGFR (human), P00533 [747-751 del / S ins]
[14] = system: EGFR (human), P00533 [A750P; 747-749 del]
[15] = target: FLT1 (human) (UniProt P17948)
[16] = system: FLT3 (human), P36888 [K663Q]
[17] = target: HIPK4 (human) (UniProt Q8NE63)
[18] = target: MAP3K5 (human) (UniProt Q99683)
[19] = target: MAP4K1 (human) (UniProt Q92918)
[20] = target: MAPK1 (human) (UniProt P28482)
[21] = target: MAPK7 (human) (UniProt Q13164)
[22] = target: MARK2 (human) (UniProt Q7KZI7)
[23] = target: MYLK3 (human) (UniProt Q32MK0)
[24] = target: NEK6 (human) (UniProt Q9HC98)
[25] = target: NTRK1 (human) (UniProt P04629)
[26] = target: PIK3CA (human) (UniProt P42336)
[27] = system: PIK3CA (human), P42336 [C420R]
[28] = system: PIK3CA (human), P42336 [E542K]
[29] = system: PIK3CA (human), P42336 [E545K]
[30] = target: PIM1 (human) (UniProt P11309)
[31] = target: PRKAA1 (human) (UniProt Q13131)
[32] = target: PRKACA (human) (UniProt P17612)
[33] = target: PRKACB (human) (UniProt P22694)
[34] = target: PRKCI (human) (UniProt P41743)
[35] = target: PRKX (human) (UniProt P51817)
[36] = target: RPS6KA6 KD1 (human) (UniProt Q9UK32)
[37] = target: SIK2 (human) (UniProt Q9H0K1)
[38] = target: STK16 (human) (UniProt O75716)
[39] = target: STK17B (human) (UniProt O94768)
[40] = target: STK39 (human) (UniProt Q9UEW8)
[41] = target: TESK1 (human) (UniProt Q15569)
[42] = target: TTK (human) (UniProt P33981)
[43] = target: ULK1 (human) (UniProt O75385)

Sequence of CSNK2A2 (human) (P19784 whole entry, looked up): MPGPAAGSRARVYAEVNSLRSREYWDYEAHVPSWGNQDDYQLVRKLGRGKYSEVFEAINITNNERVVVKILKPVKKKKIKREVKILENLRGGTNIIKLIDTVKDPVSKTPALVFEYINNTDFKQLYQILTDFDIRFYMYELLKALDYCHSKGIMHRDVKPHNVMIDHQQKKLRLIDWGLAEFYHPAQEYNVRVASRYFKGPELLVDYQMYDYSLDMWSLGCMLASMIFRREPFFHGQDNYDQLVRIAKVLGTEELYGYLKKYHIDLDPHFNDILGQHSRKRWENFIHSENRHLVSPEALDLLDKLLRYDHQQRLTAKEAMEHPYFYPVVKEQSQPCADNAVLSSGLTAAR
Sequence of MAP4K1 (human) (Q92918 whole entry, looked up): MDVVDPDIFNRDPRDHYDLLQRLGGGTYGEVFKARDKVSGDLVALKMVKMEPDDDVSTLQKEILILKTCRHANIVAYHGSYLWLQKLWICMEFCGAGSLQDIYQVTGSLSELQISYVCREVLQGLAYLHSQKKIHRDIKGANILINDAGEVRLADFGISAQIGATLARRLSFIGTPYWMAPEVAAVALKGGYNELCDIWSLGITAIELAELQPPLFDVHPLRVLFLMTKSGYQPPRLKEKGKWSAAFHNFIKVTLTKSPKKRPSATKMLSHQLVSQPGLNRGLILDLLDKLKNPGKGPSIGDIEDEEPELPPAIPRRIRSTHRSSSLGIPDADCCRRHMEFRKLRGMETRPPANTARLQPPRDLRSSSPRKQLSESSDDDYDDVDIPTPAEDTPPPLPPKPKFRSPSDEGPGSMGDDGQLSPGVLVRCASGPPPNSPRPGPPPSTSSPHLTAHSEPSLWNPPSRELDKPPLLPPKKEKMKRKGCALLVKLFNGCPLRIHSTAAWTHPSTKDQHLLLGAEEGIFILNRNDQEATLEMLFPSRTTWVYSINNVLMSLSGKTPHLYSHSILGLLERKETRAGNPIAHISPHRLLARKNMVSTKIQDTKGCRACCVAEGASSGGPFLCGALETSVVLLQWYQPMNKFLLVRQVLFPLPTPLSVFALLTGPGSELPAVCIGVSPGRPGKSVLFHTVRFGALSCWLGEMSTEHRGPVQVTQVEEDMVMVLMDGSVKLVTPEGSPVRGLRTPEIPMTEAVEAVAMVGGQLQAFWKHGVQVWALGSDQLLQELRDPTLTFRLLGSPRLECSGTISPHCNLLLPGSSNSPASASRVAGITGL
Sequence of RPS6KA6 KD1 (human) (Q9UK32 whole entry, looked up): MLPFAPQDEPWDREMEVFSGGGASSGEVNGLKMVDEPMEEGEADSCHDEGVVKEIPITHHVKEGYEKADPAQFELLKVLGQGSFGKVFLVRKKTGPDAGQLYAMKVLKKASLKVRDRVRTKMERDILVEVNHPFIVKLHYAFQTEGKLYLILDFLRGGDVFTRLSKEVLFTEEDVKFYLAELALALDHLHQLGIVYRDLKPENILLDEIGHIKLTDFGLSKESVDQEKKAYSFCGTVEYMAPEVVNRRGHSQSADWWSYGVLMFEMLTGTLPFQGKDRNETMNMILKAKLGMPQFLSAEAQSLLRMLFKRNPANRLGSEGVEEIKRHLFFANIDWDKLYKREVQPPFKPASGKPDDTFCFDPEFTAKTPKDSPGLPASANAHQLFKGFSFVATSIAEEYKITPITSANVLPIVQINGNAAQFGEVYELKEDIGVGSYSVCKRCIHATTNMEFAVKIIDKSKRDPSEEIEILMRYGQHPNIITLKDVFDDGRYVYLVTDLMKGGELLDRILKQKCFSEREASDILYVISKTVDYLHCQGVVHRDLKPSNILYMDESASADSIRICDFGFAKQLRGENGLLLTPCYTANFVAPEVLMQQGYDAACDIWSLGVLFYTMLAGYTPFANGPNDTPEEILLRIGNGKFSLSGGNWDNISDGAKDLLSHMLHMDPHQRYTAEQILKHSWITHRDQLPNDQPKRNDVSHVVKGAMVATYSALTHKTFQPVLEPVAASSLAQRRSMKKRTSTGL
Sequence of MAPK7 (human) (Q13164 whole entry, looked up): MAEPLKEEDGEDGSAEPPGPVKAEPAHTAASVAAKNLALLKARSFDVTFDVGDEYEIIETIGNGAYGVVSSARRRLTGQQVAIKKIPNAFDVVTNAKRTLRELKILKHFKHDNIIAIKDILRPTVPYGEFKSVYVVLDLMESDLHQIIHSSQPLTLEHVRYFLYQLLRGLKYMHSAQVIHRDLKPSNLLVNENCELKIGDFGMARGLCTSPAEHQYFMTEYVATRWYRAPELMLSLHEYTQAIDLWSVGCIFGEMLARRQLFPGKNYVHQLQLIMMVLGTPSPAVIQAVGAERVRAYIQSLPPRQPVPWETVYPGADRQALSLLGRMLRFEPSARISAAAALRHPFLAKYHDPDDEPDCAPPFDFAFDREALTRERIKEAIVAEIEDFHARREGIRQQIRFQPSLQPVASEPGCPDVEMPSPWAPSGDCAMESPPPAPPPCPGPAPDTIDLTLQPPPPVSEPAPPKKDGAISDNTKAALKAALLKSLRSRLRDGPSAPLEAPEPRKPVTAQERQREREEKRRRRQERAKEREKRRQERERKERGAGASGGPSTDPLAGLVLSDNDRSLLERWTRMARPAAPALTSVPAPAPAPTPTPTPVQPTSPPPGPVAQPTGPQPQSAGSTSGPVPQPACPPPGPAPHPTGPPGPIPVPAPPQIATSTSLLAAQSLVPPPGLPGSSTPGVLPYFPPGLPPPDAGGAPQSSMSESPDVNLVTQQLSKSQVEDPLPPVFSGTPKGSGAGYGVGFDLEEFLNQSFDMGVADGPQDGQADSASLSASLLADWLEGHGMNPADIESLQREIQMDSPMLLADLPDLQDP
Sequence of CDK19 (human) (Q9BWU1 whole entry, looked up): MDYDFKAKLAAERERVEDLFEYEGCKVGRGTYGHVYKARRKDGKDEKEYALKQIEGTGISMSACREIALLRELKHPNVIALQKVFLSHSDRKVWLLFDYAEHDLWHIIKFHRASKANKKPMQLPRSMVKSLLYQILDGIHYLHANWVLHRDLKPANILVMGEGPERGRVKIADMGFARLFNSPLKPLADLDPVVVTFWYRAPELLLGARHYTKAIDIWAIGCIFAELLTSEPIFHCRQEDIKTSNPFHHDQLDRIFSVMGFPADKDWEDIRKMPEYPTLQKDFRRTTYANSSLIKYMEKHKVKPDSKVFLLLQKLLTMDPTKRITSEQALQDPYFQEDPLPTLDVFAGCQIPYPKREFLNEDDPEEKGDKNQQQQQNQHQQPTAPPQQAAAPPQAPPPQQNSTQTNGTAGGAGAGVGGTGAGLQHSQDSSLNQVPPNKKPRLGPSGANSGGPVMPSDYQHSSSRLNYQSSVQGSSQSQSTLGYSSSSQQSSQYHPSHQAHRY
Sequence of MARK2 (human) (Q7KZI7 whole entry, looked up): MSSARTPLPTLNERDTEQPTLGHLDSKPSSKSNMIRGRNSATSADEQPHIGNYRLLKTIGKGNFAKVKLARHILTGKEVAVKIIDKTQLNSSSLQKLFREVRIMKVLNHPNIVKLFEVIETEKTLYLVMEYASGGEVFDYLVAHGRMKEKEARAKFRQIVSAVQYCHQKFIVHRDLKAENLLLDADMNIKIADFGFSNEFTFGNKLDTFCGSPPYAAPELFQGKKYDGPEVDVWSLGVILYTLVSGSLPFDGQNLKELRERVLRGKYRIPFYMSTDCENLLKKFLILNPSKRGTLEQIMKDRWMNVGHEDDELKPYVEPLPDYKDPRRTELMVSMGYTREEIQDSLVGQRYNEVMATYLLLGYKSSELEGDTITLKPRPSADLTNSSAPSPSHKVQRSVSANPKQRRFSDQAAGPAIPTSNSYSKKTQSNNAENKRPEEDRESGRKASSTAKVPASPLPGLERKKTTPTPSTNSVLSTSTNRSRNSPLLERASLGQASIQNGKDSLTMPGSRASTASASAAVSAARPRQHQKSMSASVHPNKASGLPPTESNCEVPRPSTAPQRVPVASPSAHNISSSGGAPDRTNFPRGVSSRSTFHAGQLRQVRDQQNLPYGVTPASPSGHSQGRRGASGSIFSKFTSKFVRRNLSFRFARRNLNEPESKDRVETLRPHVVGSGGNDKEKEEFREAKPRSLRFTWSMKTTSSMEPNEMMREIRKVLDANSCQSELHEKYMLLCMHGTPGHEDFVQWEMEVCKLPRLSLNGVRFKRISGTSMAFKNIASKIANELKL
Sequence of TESK1 (human) (Q15569 whole entry, looked up): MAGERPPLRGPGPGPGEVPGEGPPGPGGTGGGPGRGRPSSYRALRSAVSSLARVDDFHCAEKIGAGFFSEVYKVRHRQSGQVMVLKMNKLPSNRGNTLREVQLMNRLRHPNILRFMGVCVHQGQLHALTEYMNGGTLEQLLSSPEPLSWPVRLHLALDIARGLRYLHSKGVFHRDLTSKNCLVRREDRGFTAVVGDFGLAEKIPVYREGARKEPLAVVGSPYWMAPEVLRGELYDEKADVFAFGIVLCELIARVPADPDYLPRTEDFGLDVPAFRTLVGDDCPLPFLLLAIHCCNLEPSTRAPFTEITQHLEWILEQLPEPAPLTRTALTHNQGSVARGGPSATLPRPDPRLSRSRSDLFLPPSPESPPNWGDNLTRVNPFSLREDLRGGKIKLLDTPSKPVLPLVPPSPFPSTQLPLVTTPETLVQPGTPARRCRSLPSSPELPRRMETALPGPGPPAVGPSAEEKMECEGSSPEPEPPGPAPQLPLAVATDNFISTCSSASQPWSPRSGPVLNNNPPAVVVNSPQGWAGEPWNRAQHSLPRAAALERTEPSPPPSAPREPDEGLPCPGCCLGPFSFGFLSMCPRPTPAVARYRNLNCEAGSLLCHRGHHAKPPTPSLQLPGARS
Sequence of AURKC (human) (Q9UQB9 whole entry, looked up): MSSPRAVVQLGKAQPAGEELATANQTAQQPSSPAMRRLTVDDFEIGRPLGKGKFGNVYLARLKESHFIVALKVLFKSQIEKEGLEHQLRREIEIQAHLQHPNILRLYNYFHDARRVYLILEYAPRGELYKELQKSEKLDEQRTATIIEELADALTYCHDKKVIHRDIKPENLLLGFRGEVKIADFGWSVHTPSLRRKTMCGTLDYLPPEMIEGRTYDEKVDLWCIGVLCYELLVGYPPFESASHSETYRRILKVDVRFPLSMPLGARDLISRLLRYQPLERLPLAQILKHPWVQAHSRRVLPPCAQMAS

Q: For `COCCNCCCn1c(C(=O)CF)c(-c2ccc(C)cc2)c2c(N)ncnc21`, which kinase still bound, per cent of control [1] is on record?
A: 71%

Q: And the kinase still bound, per cent of control [2]?
A: 89%

Q: What about the kinase still bound, per cent of control [3] of the same compound?
A: 100%

Q: What about the kinase still bound, per cent of control [4] of the same compound?
A: 100%

Q: What about the kinase still bound, per cent of control [5] of the same compound?
A: 98%

Q: And the kinase still bound, per cent of control [6]?
A: 100%

Q: What about the kinase still bound, per cent of control [7] of the same compound?
A: 72%

Q: And the kinase still bound, per cent of control [8]?
A: 95%

Q: What about the kinase still bound, per cent of control [9] of the same compound?
A: 99%

Q: And the kinase still bound, per cent of control [10]?
A: 99%

Q: What about the kinase still bound, per cent of control [11] of the same compound?
A: 100%

Q: And the kinase still bound, per cent of control [12]?
A: 100%

Q: And the kinase still bound, per cent of control [13]?
A: 84%

Q: What about the kinase still bound, per cent of control [14] of the same compound?
A: 67%

Q: And the kinase still bound, per cent of control [15]?
A: 96%

Q: What about the kinase still bound, per cent of control [16] of the same compound?
A: 100%

Q: What about the kinase still bound, per cent of control [17] of the same compound?
A: 95%

Q: And the kinase still bound, per cent of control [18]?
A: 100%

Q: And the kinase still bound, per cent of control [19]?
A: 86%

Q: What about the kinase still bound, per cent of control [20] of the same compound?
A: 100%

Q: What about the kinase still bound, per cent of control [21] of the same compound?
A: 100%

Q: And the kinase still bound, per cent of control [22]?
A: 81%

Q: What about the kinase still bound, per cent of control [23] of the same compound?
A: 96%

Q: And the kinase still bound, per cent of control [24]?
A: 100%

Q: And the kinase still bound, per cent of control [25]?
A: 82%

Q: And the kinase still bound, per cent of control [26]?
A: 100%

Q: What about the kinase still bound, per cent of control [27] of the same compound?
A: 100%

Q: What about the kinase still bound, per cent of control [28] of the same compound?
A: 100%

Q: And the kinase still bound, per cent of control [29]?
A: 100%

Q: What about the kinase still bound, per cent of control [30] of the same compound?
A: 100%

Q: What about the kinase still bound, per cent of control [31] of the same compound?
A: 100%

Q: And the kinase still bound, per cent of control [32]?
A: 100%

Q: What about the kinase still bound, per cent of control [33] of the same compound?
A: 96%

Q: And the kinase still bound, per cent of control [34]?
A: 75%

Q: What about the kinase still bound, per cent of control [35] of the same compound?
A: 80%

Q: And the kinase still bound, per cent of control [36]?
A: 90%

Q: What about the kinase still bound, per cent of control [37] of the same compound?
A: 82%

Q: What about the kinase still bound, per cent of control [38] of the same compound?
A: 100%

Q: What about the kinase still bound, per cent of control [39] of the same compound?
A: 96%

Q: What about the kinase still bound, per cent of control [40] of the same compound?
A: 100%

Q: And the kinase still bound, per cent of control [41]?
A: 100%

Q: What about the kinase still bound, per cent of control [42] of the same compound?
A: 95%

Q: And the kinase still bound, per cent of control [43]?
A: 100%
